Results published in patent publication US20100221709A1, “METHODS FOR IDENTIFYING AGENTS THAT MODULATE APOPTOSIS IN CELLS THAT OVER-EXPRESS A BCL-2 FAMILY MEMBER PROTEIN” (priority 2005, published 2010).

Experiments:
[1] = tested on: TABX1A cells (Bcl-xL antisense); experiment: Cell viability by trypan blue dye exclusion; conditions: 2 μg/ml, without fructose, six hours
Text: Briefly, a DNA fragment encoding the full-length mouse Bcl-xL cDNA was isolated from the plasmid pBS-BCL-xL (Tzung et al., Am. J. Path. 150:1985-1995 (1997), incorporated herein by reference in its entirety) by digestion with the restriction endonuclease EcoRI. This EcoRI fragment was cloned into the EcoRI site of the mammalian expression vector pSFFV (Fuhlbrigge et al., Proc. Nat. Acad. Sci. USA 85:5649-5653 (1988)) in both sense and antisense orientations, to form expression plasmids pSFFV-Bc/-xL-WT(sense) or pSFFV-Bc/-xL(antisense), respectively. The tumorigenic murine hepatocyte cell line TAMH was transfected by lipofection (Lipofectamine, Life Technologies, Rockville, Md., according to the manufacturer's recommendations) with the plasmids pSFFV-neo (the control), pSFFV-Bc/-xL-WT(sense) or pSFFV-Bc/-xL(antisense). Characterization of and culture conditions for the cell lines have been previously published (Wu et al., Proc. Nat. Acad. Sci. USA 91:674-78 (1994); Wu et al., Cancer Res. 54:5964-5973 (1994)). Transfectants were selected for the acquisition of neomycin resistance by growing cells in the presence of 750 μg/ml of G418. Bulk transfectants were cloned by limiting dilution and individual clones were screened by immunoblot analysis to determine the level of Bcl-xL, protein expression as described below.
Selected transfectants were then tested for whole cell sensitivity to several apoptotic agents. Transfected cells were cultured to reach approximately 80% confluency prior to plating an equal number of cells from selected clones on 12-well tissue culture plates. The transplanted cells were treated with the following apoptotic agents: 5 μM doxorubicin for 48 hours; 5 μM cisplatin for 48 hours; or with 200 U/ml tumor necrosis factor (TNF) plus 1 μg/ml actinomycin D for 18 hours. Cell viability was determined by trypan blue dye exclusion. The percentage of viable cells was calculated by the number of viable cells (treated with a particular apoptogenic agent) divided by the number in the control group (untreated). […]

NCI-H929 myeloma cells = experiment: [3H]-thymidine incorporation; assay type: cell-based, human
Protocol: (§1) RPMI-8226 cells were grown in 96 well plates for 24 h prior to addition of 2-methoxy antimycins. Antimycin stocks in dimethyl sulfoxide (DMSO) were serially diluted in RPMI. Cells were incubated for 48 h with compounds at final compound concentrations ranging from 10^−4 to 10^−8 M. MTT cell proliferation assays were performed in quadruplicate and percent growth inhibitions were calculated as (A570 (control cells)-A570 (treated cells))/A570 (control cells). GI50 was extrapolated from semi-log plots of the dose response for each compound. […] After 72 h drug exposures, 1 μCi/ml [^3H]-thymidine was added to wells. Cells were incubated for an additional 24 h, and then transferred to GF/C filter plates (Packard) using a plate washer. Filters were dried, added to scintillant, and counted in a TopCount® scintillation counter (Packard). Drug response is expressed as the percentage of vehicle-treated controls, and each value shown is the average of three determinations.

RPMI-8226 myeloma cells = experiment: [3H]-thymidine incorporation; assay type: cell-based, human
Protocol: as §1

U266 myeloma cells = experiment: [3H]-thymidine incorporation; assay type: cell-based, human
Protocol: as §1

[2] = tested on: TAMH hepatocyte and RPMI-8226 myeloma cell lines; experiment: O2 consumption, Clark electrode; assay type: cell-based; conditions: 10 μM
Protocol: Respiratory rates of both cell lines were maintained through repeated additions of 10 μM 2-OMeAA, to a final concentration of 90 μM (FIG. 7A). […] The metabolic response to hypoxia is dominated by a shift to glycolytic metabolism characterized by increased rates of glucose uptake and reductive conversion of pyruvate to lactic acid. Real-time glucose consumption and lactate production by TAMH cells grown on microcarrier beads were monitored using a microsequential injection-lab on valve (μSI-LOV) system (Schulz et al., Analyst 127:1293-1298 (2002)). […] Since 2-OMeAA has no effect on cellular respiration at these concentrations, 2-OMeAA induces aerobic glycolysis in TAMH cells. The glycolytic response to 2-OMeAA was proportional to cellular Bcl-xL protein expression (FIG. 7C).

TAMH cells = experiment: Microsequential injection-lab on valve glucose consumption and lactate production; assay type: cell-based, murine; conditions: 10-100 nM
Protocol: Detailed methods have been previously published (Schulz et al., Analyst 127:1583-1588 (2002)). Cytopore™ beads (Amersham Pharmacia Biotech, Upsala, Sweden) were hydrated in Hanks balanced salt solution (Gibco-BRL, Grand Island, N.Y.) and autoclaved according to manufacturers instructions. Beads were incubated in serum-containing media overnight. TAMH cells were transferred to the bead slurry at an approximate ratio of 50 cells per bead and grown in spinner culture flasks with gentle stirring. Beads were collected for metabolic studies at cell densities of approximately 100-500 cells/bead. For experiments, cell medium was replaced with HBSS. […]
Glucose and lactate concentrations were assayed as substrates in first-order NAD-linked enzymatic reactions, with NADH generation monitored by absorbance at 340 nm. […]
An assay cycle is initiated by packing a column of cells attached to beads in the microbioreactor, which is upstream of the LOV flow cell. […] After the stop flow period, 3 μL of the interstitial fluid from the cell column is injected through to the LOV flow cell previously loaded with glucose or lactate reagent and 340 nm absorbance recorded for 30 s after mixing. Calibration standards were used to convert endpoint absorbance to concentrations. […]

For antimycin A, the survival [1] was 87%, the “50% growth inhibition (GI50)” value (NCI-H929 myeloma cells) was 0.2 µg/mL and the “50% growth inhibition (GI50)” value (RPMI-8226 myeloma cells) was 0.1 µg/mL. The “50% growth inhibition (GI50)” value (U266 myeloma cells) was 0.05 µg/mL, the “respiration dampened by” value [2] was > 90% and the “glucose uptake and lactate production” value (TAMH cells) was “increased glucose uptake and lactate production”.
